Assay results taken from US12036221B2, “Ketamine or dextromethorphan formulations and methods of use” (West Virginia University, priority 2014, dated 2024).

Assays:
[1] = forced swim test (preclinical); format: in vivo; conditions: preclinical studies
NMDA receptors = conditions: cited from earlier work
sigma receptors = conditions: cited from earlier work
[2] = in vivo; cited from earlier work
depression = conditions: cited from earlier work
[3] = system: treatment resistant patients; experiment: off-label use of transbuccal ketamine in treatment resistant patients (day-hospital, preliminary data)

Structure (SMILES) | immobility time in the forced swim test [1] | affinity for NMDA receptors (NMDA receptors) | affinity for sigma receptors (sigma receptors) | metabolism in the body [2] | duration of antidepressant effects (depression; in vivo) | onset of antidepressant effects after administration (depression; off-label use) | onset of rapid acting antidepressant effects (depression; sub-anesthetic doses) | onset of antidepressant effects ([3]; 0.5 mg/kg liquid ketamine held in the mouth (transbuccal), patient report and clinician observation) | side effects ([3]; 0.5 mg/kg liquid ketamine, transbuccal / oral mucosa absorption)
COc1ccc2c(c1)[C@]13CCCC[C@@H]1[C@H](C2)N(C)CC3 [DM, dextromethorphan] | dose dependently reduces immobility time | moderate affinity | significant affinity | rapidly metabolized in the body to dextrorphan |  |  |  |  | 
CN(C)CCCN1c2ccccc2CCc2ccccc21 [imipramine] | dose dependently reduces immobility time |  |  |  |  |  |  |  | 
CNC1(c2ccccc2Cl)CCCCC1=O (stereo not drawn) [ketamine] | dose dependently reduces immobility time |  | significant affinity |  | up to two | ≤ 24 h | two | ≤ 24 h | No side effects (except for a transient, mild headache and slight dizziness in one patient each soon after administration)
